These results are taken from ChEMBL document CHEMBL5360534, “Synthetic α-glucosidase inhibitors as promising anti-diabetic agents: Recent developments and future challenges” (Eur J Med Chem, 2023).

Assay [1] can be described thus: Inhibition of Saccharomyces cerevisiae alpha-glucosidase type I using p-nitrophenyl-alpha-D-glucopyranoside as substrate preincubated for 10 mins followed by substrate addition and measured after 30 mins by absorbance based analysis.
Another assay concerns Saccharomyces cerevisiae. The assay is described as follows: Potency index, ratio of acarbose IC50 to test compound IC50 for inhibition of Saccharomyces cerevisiae alpha-glucosidase type I using p-nitrophenyl-alpha-D-glucopyranoside as substrate preincubated for 10 mins followed by substrate addition and measured after 30 mins by absorbance based analysis. The note with it: time 40.0 min.

Assay [2] concerns the target T1, Alpha-glucosidase (Saccharomyces cerevisiae S288c, UniProt P53341+P38158+P07265). The assay is described as follows: Inhibition of Saccharomyces cerevisiae alpha-glucosidase using p-nitrophenyl-alpha-D-glucopyranoside as substrate preincubated with compound followed by substrate addition and measured after 30 mins by absorbance based analysis. The assay is classed as protein assay.

Assay [3] deals with T1, Alpha-glucosidase. The assay is described as follows: Un-competitive inhibition of Saccharomyces cerevisiae alpha-glucosidase using p-nitrophenyl glucopyranoside as substrate assessed as inhibition constant preincubated for 15 mins followed by substrate addition and measured after 20 mins by spectrophotometric analysis. The assay is classed as protein assay.
Assay [4] has as its target T1, Alpha-glucosidase. The assay is described as follows: Inhibition of Saccharomyces cerevisiae alpha-glucosidase using p-nitrophenyl glucopyranoside as substrate preincubated for 10 mins followed by substrate addition and measured after 20 mins by spectrophotometric analysis. Format: protein assay.
In assay [5] the target is T1, Alpha-glucosidase. The assay is described as follows: Inhibition of Saccharomyces cerevisiae alpha-glucosidase using p-nitrophenyl-alpha-D-glucopyranoside as substrate preincubated for 10 mins followed by substrate addition and measured after 20 mins by absorbance based analysis. The assay is classed as protein assay.
In assay [6] the target is T1, Alpha-glucosidase. The assay is described as follows: Competitive inhibition of Saccharomyces cerevisiae alpha-glucosidase using p-nitrophenyl-alpha-D-glucopyranoside as substrate assessed as inhibition constant preincubated for 10 mins followed by substrate addition and measured after 20 mins by absorbance based analysis. The assay is classed as protein assay.
The target of assay [7] is T1, Alpha-glucosidase. The assay is described as follows: Inhibition of Saccharomyces cerevisiae alpha-glucosidase using p-nitrophenyl-alpha-D-glucopyranoside as substrate preincubated for 20 mins followed by substrate addition and measured after 30 mins by spectrophotometric analysis. The assay is classed as protein assay.
For the next assay, the species on record is Rattus norvegicus. As to the kind of experiment: Anti-hyperglycemic activity against STZ-induced hyperglycemic rat model assessed as reduction in blood glucose level relative to control. Details: scale not given: the % may be the effect or the level left. The assay is classed as functional.
Assay [8] in a line: Inhibition of alpha-glucosidase (unknown origin). Details: species or system Homo sapiens.
Assay [9] can be described thus: Inhibition of rat intestinal alpha-glucosidase assessed as inhibition constant.
Assay [10] can be described thus: Inhibition of rat intestinal alpha-glucosidase.
Assay [11] concerns the target T1, Alpha-glucosidase. As to the kind of experiment: Inhibition of Saccharomyces cerevisiae alpha-glucosidase using p-nitrophenyl-alpha-D-glucopyranoside as substrate preincubated for 10 mins followed by substrate addition and measured after 20 mins by absorbance based microplate reader analysis. Format: protein assay.
The target of assay [12] is T1, Alpha-glucosidase. As to the kind of experiment: Inhibition of Saccharomyces cerevisiae alpha-glucosidase using p-nitrophenyl-alpha-D-glucopyranoside as substrate incubated for 15 mins by UV-visible spectrophotometric analysis. Format: protein assay.
A short description of assay [13]: Inhibition of alpha-glucosidase (unknown origin) using p-NPG as substrate assessed as inhibition constant preincubated with compound followed by substrate addition and measured by absorbance based analysis. Further details: species or system Homo sapiens.
Assay [14] deals with T1, Alpha-glucosidase. The assay is described as follows: Inhibition of Saccharomyces cerevisiae alpha-glucosidase using pNPG as substrate by spectroscopic analysis. The assay is classed as protein assay.
The nature of assay [15]: Inhibition of alpha-glucosidase (unknown origin) using 4-nitrophenyl-[…]-D-glucopyranoside as substrate preincubated for 20 mins followed by substrate addition and measured after 1 hr by absorbance based analysis. Further details: species or system Homo sapiens.
The target of assay [16] is T1, Alpha-glucosidase. The assay is described as follows: Non-competitive inhibition of Saccharomyces cerevisiae alpha-glucosidase using p-nitrophenyl-alpha-D-glucopyranoside as substrate assessed as inhibition constant preincubated for 15 mins followed by substrate addition and measured after 30 mins by multiplate reader analysis. The assay is classed as protein assay.

For assay [17], the target named is T1, Alpha-glucosidase. As to the kind of experiment: Inhibition of Saccharomyces cerevisiae alpha-glucosidase using p-nitrophenyl-alpha-D-glucopyranoside as substrate preincubated for 15 mins followed by substrate addition and measured after 30 mins by multiplate reader analysis. Format: protein assay.
Assay [18] is described as follows: Inhibition of alpha-glucosidase (unknown origin) using PNP glycoside as substrate preincubated for 30 mins followed by substrate addition and measured after 1 min by spectrophotometric analysis. Details: species or system Homo sapiens.
The target in assay [19] is T1, Alpha-glucosidase. The assay is described as follows: Competitive inhibition of Saccharomyces cerevisiae alpha-glucosidase using p-nitrophenyl glucopyranoside as substrate assessed as inhibition constant preincubated for 15 mins followed by substrate addition and measured after 20 mins by spectrophotometric analysis. The assay is classed as protein assay.
Assay [20] can be described thus: Inhibition of alpha-glucosidase (unknown origin) using p-nitrophenyl-alpha-D-glucopyranoside as substrate preincubated for 5 mins followed by substrate addition and measured after 10 mins by absorbance based microplate reader analysis. Details: species or system Homo sapiens.
A short description of assay [21]: Mixed-type inhibition of alpha-glucosidase (unknown origin) using p-nitropheny-alpha-D-glucopyranoside as substrate assessed as inhibition constant by measuring secondary plot of 1/V versus drug concentration preincubated for 5 mins followed by substrate addition and measured after 10 mins by absorbance based microplate reader analysis. Details: species or system Homo sapiens.

Assay [22] in a line: Mixed-type inhibition of alpha-glucosidase (unknown origin) using p-nitropheny-alpha-D-glucopyranoside as substrate assessed as inhibition constant by measuring intercept versus drug/substrate concentration preincubated for 5 mins followed by substrate addition and measured after 10 mins by absorbance based microplate reader analysis. Further details: species or system Homo sapiens.

The target of assay [23] is T1, Alpha-glucosidase. As to the kind of experiment: Inhibition of Saccharomyces cerevisiae alpha-glucosidase using p-nitrophenyl glucopyranoside as substrate preincubated for 10 mins followed by substrate addition and measured after 30 mins by absorbance based microplate reader analysis. Format: protein assay.
The target in assay [24] is T1, Alpha-glucosidase. As to the kind of experiment: Non-competitive inhibition of Saccharomyces cerevisiae alpha-glucosidase using p-nitrophenyl glucopyranoside as substrate assessed as inhibition constant preincubated for 15 mins followed by substrate addition and measured after 20 mins by spectrophotometric analysis. The assay is classed as protein assay.
Assay [25] concerns the target T1, Alpha-glucosidase. The assay is described as follows: Inhibition of Saccharomyces cerevisiae alpha-glucosidase using p-nitrophenyl-alpha-D-glucopyranoside as substrate preincubated for 5 mins followed by substrate addition and measured after 30 mins by absorbance based microplate reader analysis. The assay is classed as protein assay.
The nature of assay [26]: Competitive inhibition of alpha-glucosidase (unknown origin) assessed as inhibition constant. Further details: species or system Homo sapiens.

As a reminder, the IC50 is the midpoint of a concentration-inhibition curve. Take `Cc1nn(-c2ccc(Nc3cccc(Cl)c3)nn2)c(C)c1[N+](=O)[O-]`: in [1], the IC50 was 19.3 µM. Moreover, the Ratio IC50 with Saccharomyces cerevisiae is 1.98.

As for `CC1=NN(c2ccc([N+](=O)[O-])cc2)C(=O)/C1=C/c1cn(-c2ccccc2)nc1-c1cc2cc(Br)ccc2oc1=O`, the IC50 on Alpha-glucosidase [2] came out at 2.1 µM.

The Ki is the dissociation constant of the complex between target and ligand, obtained from inhibition or displacement. On to `N#CC1=C(N)Oc2c(c(=O)[nH]c3c2ccc2ccccc23)C1c1ccc(Cl)cc1` (stereo unspecified), for which the Ki at Alpha-glucosidase [3] is 11 µM. For the same molecule, the half-maximal inhibitory concentration (IC50) against Alpha-glucosidase [4] amounted to 10.3 µM.

In the case of `Cc1ccc(NC(=O)Oc2ccc(-c3nc4ccccn4c3NC(C)(C)C)cc2)cc1`, the IC50 on Alpha-glucosidase [5] was 75.6 µM. Moreover, on Alpha-glucosidase [6], the Ki came out at 71 µM.

Consider `CC(C)=C(C)CSc1nnc(-c2cc(OCC(F)(F)F)ccc2OCC(F)(F)F)o1`, for which the IC50 against Alpha-glucosidase [7] amounted to 46.01 µM.

As for `COc1ccc(-n2c(SCC(=O)N/N=C/c3ccc(O)cc3)nc3ccccc3c2=O)cc1`, the Activity in the assay filed under Rattus norvegicus came to 43.07%. The same molecule had an IC50 in [8] of 561 µM.

As for `N[C@H]1[C@H](O)[C@@H](O)[C@H](O)[C@@H](CO)[C@@H]1CCO`, the Ki in [9] came out at 6.3 µM. Further, in assay [10], the IC50 is 5.8 µM.

On to `O=C1CS/C(=N\N=C\c2ccc(OS(=O)(=O)c3ccccc3[N+](=O)[O-])cc2)N1`, for which, on Alpha-glucosidase [11], the IC50 was 42.8 µM.

`OC[C@H]1O[C@H](OCc2cn(C[C@H]3O[C@@H]4O[C@H]5[C@H](O)[C@@H](O)[C@@H](O[C@H]6[C@H](O)[C@@H](O)[C@@H](O[C@H]7[C@H](O)[C@@H](O)[C@@H](O[C@H]8[C@H](O)[C@@H](O)[C@@H](O[C@H]9[C@H](O)[C@@H](O)[C@@H](O[C@H]%10[C@H](O)[C@@H](O)[C@@H](O[C@H]%11[C@H](O)[C@@H](O)[C@@H](O[C@H]3[C@H](O)[C@H]4O)O[C@@H]%11Cn3cc(CO[C@H]4O[C@H](CO)[C@@H](O)[C@H](O)[C@@H]4O)nn3)O[C@@H]%10Cn3cc(CO[C@H]4O[C@H](CO)[C@@H](O)[C@H](O)[C@@H]4O)nn3)O[C@@H]9Cn3cc(CO[C@H]4O[C@H](CO)[C@@H](O)[C@H](O)[C@@H]4O)nn3)O[C@@H]8Cn3cc(CO[C@H]4O[C@H](CO)[C@@H](O)[C@H](O)[C@@H]4O)nn3)O[C@@H]7Cn3cc(CO[C@H]4O[C@H](CO)[C@@H](O)[C@H](O)[C@@H]4O)nn3)O[C@@H]6Cn3cc(CO[C@H]4O[C@H](CO)[C@@H](O)[C@H](O)[C@@H]4O)nn3)O[C@@H]5Cn3cc(CO[C@H]4O[C@H](CO)[C@@H](O)[C@H](O)[C@@H]4O)nn3)nn2)[C@@H](O)[C@@H](O)[C@@H]1O` gave an IC50 against Alpha-glucosidase [12] of 32 µM.

Regarding `COc1c(C(=O)/C=C/c2ccc(Br)cc2)c(OC)c(C(=O)/C=C/c2ccc(Br)cc2)c(OC)c1C(=O)/C=C/c1ccc(Br)cc1`, in assay [13], the Ki is 0.0039 µM.

On Alpha-glucosidase [14], `Brc1cccc(CSc2nnc(-c3ccc4nc(-c5ccccc5)c(-c5ccccc5)nc4c3)o2)c1` gave a 50% inhibitory concentration (IC50) of 0.02847 µM.

The molecule `Oc1ccccc1-c1cc(-c2ccc(C(F)(F)F)cc2)n(-c2ccccc2)n1` registered a 50% inhibitory concentration (IC50) in assay [15] of 115 µM.

As to `Oc1ccc(Br)cc1-c1nc2cc(Cl)ccc2s1`, the Ki at Alpha-glucosidase [16] is 16.03 µM. The molecule further showed an IC50 against Alpha-glucosidase [17] of 22.1 µM.

Molecule `C(=N\Nc1nc(-c2ccc(-c3ccccc3)cc2)cs1)/c1cccc2ccccc12` had an IC50 in assay [18] of 6.2 µM.

For `O=C(Cn1cc(CNC(=O)c2c3ccccc3nc3ccccc23)nn1)Nc1cccc(Br)c1`, at Alpha-glucosidase [19], the Ki was 78 µM. The molecule also had an IC50 against Alpha-glucosidase [4] of 80.3 µM.

For `O=C1CNC(=S)N1C(=O)c1cc([N+](=O)[O-])cc([N+](=O)[O-])c1`, in [20], it took 50 µM to reach half-maximal inhibition (IC50). Besides, the Ki in assay [21] came to 34 µM; in [22], 156 µM.

`Cc1cccc(NC(=O)CSc2nnc(Cc3c[nH]c4ccccc34)o2)c1` returned a half-maximal inhibitory concentration (IC50) against Alpha-glucosidase [23] of 9.37 µM.

At Alpha-glucosidase [4], `N#CC1=C(N)Oc2c(c(=O)[nH]c3c2ccc2ccccc23)C1c1ccc(Br)cc1` (stereo unspecified) registered an IC50 of 15.7 µM. Besides, on Alpha-glucosidase [24], the Ki is 28 µM.

On to `COc1cccc(NC(=O)Cn2nc3c(c2C)N(C)Sc2ccccc2-3)c1`, for which the IC50 at Alpha-glucosidase [25] worked out at 5.8 µM.

Consider `Cn1cnnc1SC(=O)c1ccc(-c2ccccc2Cl)o1`, for which the inhibitory constant (Ki) in assay [26] amounted to 5.1 µM. The same molecule registered an IC50 in assay [8] of 2.2 µM.
